Measurements: patent US20240156920A1, “COMPOSITIONS COMPRISING HYALURONIDASE AND/OR COLLAGENASE AND/OR 4-METHYLUMBELLIFERONE (4-MU) AND METHODS OF TREATMENT USING SAME” (STANDARD OF CARE CORPORATION, priority 2019, published 2024)

Experiments:
[1] = tested on: patient with peri-orbital puffiness due to edema; experiment: Treatment of peri-orbital puffiness due to peri-orbital edema using 4-MU (Example 5); format: in vivo, human
Experimental: A patient with peri-orbital puffiness due to edema (edema not due to a hyaluronic acid filler) of the peri-orbital soft tissues or edema of the eyelid fat pads was treated with a composition comprising 25 mg/mL 4-methylumbelliferone (4-MU). Briefly, four injections were administered in the peri-orbital soft tissues and edematous orbital fat pads. The injections were performed using a 0.5 ml syringe having a 32-gauge needle inserted parallel to the globe, angling away from the globe, to avoid injury to the globe. An improvement in the extent of peri-orbital puffiness due to peri-orbital edema was observed within the first 15-60 minutes after the injections. […] Although there was recurrence of some of the edema, there was an improvement up to 3 months.

[2] = tested on: patient with peri-orbital puffiness due to edema; experiment: Treatment of peri-orbital puffiness due to peri-orbital edema using a hyaluronidase (Example 2); format: in vivo, human; settings: four injections, 10 units in each fat pad
Experimental: A patient with peri-orbital puffiness due to edema (edema not due to a hyaluronic acid filler) of the peri-orbital soft tissues or edema of the eyelid fat pads was treated with a composition comprising a hyaluronidase (e.g., Hylenex). Briefly, four injections were administered in the peri-orbital soft tissues and edematous orbital fat pads using a dosage of 10 units injected in each fat pad (in the case of edema of the fat pads). The injections were performed using a 0.5 ml syringe having a 32-gauge needle inserted parallel to the globe, angling away from the globe, to avoid injury to the globe.
An improvement in the extent of peri-orbital puffiness due to peri-orbital edema was observed within the first 15-60 minutes after the injections. […] Although there was recurrence of some of the edema, there was an improvement up to 3 months.

[3] = tested on: patients with inflammation due to stasis dermatitis; experiment: Treatment of inflammation due to stasis dermatitis, severity grade (Example 6); format: in vivo, human; design: key: 4 (severe); 3 (moderate); 2 (mild); 1 (quiescent); 0 (normal); settings: one week after treatment, 500 units at five points on the ankle
Experimental: Patients with inflammation due to stasis dermatitis (Patient A, B, and C) on their lower legs were treated with Hylenex and the change in severity of their inflammation was measured after treatment.
Briefly, the severity of inflammation on a target area of each patient's ankle was first graded on the following scale: 4 (severe), 3 (moderate), 2 (mild), 1 (quiescent), or 0 (normal). Patient A scored a 4 prior to treatment, Patient B scored a 3 prior to treatment, and Patient C scored a 3 prior to treatment.
Next, 500 units of hylenex was injected at five different points into an area on each patient's ankle. The injections were performed using a 0.5 ml syringe having a 32-gauge needle. All patients were followed post injection, at one day and one week. Patient A's inflammation was classified as a 2 one week after treatment, Patient B's inflammation was classified as a 2 one week after treatment, and Patient C's inflammation was classified as a 2 one week after treatment.

[4] = tested on: patients with lower eyelid puffiness; experiment: Treatment of lower eyelid puffiness with hyaluronidase and collagenase, visual assessment (Example 7); format: in vivo, human; settings: one patient per composition; 100 U to each of five sites in the lower eyelid fat pads; assessed 2 weeks to 1 year after administration
Experimental: Patient A (a person), Patent B (a person), and Patent C (a person) presented with lower eyelid puffiness.
Briefly, Patient A was administered a composition comprising Hylenex by injections of 100 U to each of five sites in the lower eyelid fat pads, Patient B was administered a composition comprising a collagenase by injections of 100 U to each of five sites in the lower eyelid fat pads, and Patient C was administered a composition comprising Hylenex and a collagenase by injections of 100 U to each of five sites in the lower eyelid fat pads. The injections were performed using a 0.5 ml syringe having a 32-gauge needle.
Each patient's lower eyelid puffiness was visually assessed 2 weeks, 1 month, 2 months, 4 months, 6 months, and 1 year after administration of the compositions.

[5] = tested on: patients with scleroderma on their arms; experiment: Treatment of fibrosis (scleroderma on arms), severity grade (Example 8); format: in vivo, human; settings: five patients; average prior to treatment moderate; five injection points in a 10×10 cm area; followed one day to six months
Experimental: Five patients with scleroderma on their arms were treated with Hylenex and the change in severity of their fibrosis was measured after treatment. Briefly, the severity of scleroderma on a target area of on each patient was first graded using as either severe, moderate, mild, or none. Overall scores for patients' arms prior to treatment averaged as moderate.
Next, Hylenex was injected at five different points into a 10×10 cm area of scleroderma on the patient's arm. The injections were performed using a 0.5 ml syringe having a 32-gauge needle. All patients were followed post injection, at one day, one week, one, three, and six months.

Demyelinated neurons = experiment: Treatment of demyelinated neurons in culture, microscopy (Example 9); format: cell-based; settings: 10 U/mL; after 14 days; 24-well plate
Experimental: Demyelinated neurons were grown to confluence in culture and then transferred to a 24-well cell culture plate (Sigma) in a volume of 2 mL. 10 U/mL of Hylenex was added to each well.

patients with jowls = experiment: Treatment of jowls, severity grade (Example 10); format: in vivo, human; settings: Patients A, B and C, injected at seven points
Experimental: Patients with jowls (Patient A, B, and C) were treated with Hylenex and the change in severity of their jowls was measured after treatment. Briefly, the severity of jowls in Patients A-C was assessed on a scale of severe, moderate or mild. Patient A and B presented with severe jowls while Patient C presented with mild jowls.
Next, Hylenex was injected at seven different points into an area of skin on each patients with jowls. The injections were performed using a 0.5 ml syringe having a 32-gauge needle. All patients were followed post injection, at one day, one week, one, three, and six months.

[6] = tested on: patients with peri-orbital puffiness due to edema of the eyelid fat pads; experiment: Treatment of peri-orbital puffiness due to peri-orbital edema using HYLENEX, PEFAS and Subjective Patient Score (Example 12); format: in vivo, human
Source text: The Peri-orbital and Eyelid Fullness Assessment Scale (PEFAS or Sweis-Scale) defines the etiology of the upper and/or lower eyelid fullness to determine the best and safest course of treatment. It determines whether the fullness is secondary to pseudoherniation of the upper and/or lower eyelid fat pads, secondary to edema of the eyelid soft tissues, secondary to edema of the fat pads, or secondary to a combination of pseudoherniation of the fat pads with edema of the fat pads, and/or edema of the peri-orbital soft tissues. The PEFAS score is represented as the findings in the right upper eyelid/the findings in the lower eyelid and the findings in the left upper eyelid/the findings in the lower eyelid.
Four patients (Patients A-D) with peri-orbital puffiness due to edema (as identified in Example 1) of the eyelid fat pads were scored as a Grade 1E, 2E, 3E, or 3+E on the Peri-orbital Fullness Assessment Scale. A score was given to the upper and lower eyelids in the patient's left and right eye. Patient A's eyes were scored on the PEFAS scale as a L 0/3E (left eye; upper eyelid over lower eyelid) and a R 0/3E (right eye; upper eyelid over lower eyelid). Patient B was scored as a L 2E/2E and a R 2E/2E. Patient C was scored as a L 1/3E and a R 0/3E and Patient D was scored as a L 2E/3+E and a R 2E/3+E.
The patients were subsequently treated with HYLENEX. […] The injections were performed using a 0.5 ml syringe having a 31-gauge needle inserted parallel to the globe, angling away from the globe, to avoid injury to the globe. Specifically, three injections were made into the medial eyelid fat pad, two into the central eyelid fat pad, and three into the lateral eyelid fat pad at a depth of about 6 mm, 8 mm, and 6 mm, respectively. Additionally Patients B and C received 3 to 5 injections in the peri-orbital soft tissues (e.g., the malar region) at a depth of between about 5 to about 10 mm.
After treatment, Patient C was followed for 1 month, Patient D was followed for 2 months, and Patients A and B were followed for 3 months.
After treatment, the patient's eyes were scored on the PEFAS scale. Patient A's eyes were scored on the PEFAS scale as a L 0/0 (left eye; upper eyelid over lower eyelid) and a R 0/0E (right eye; upper eyelid over lower eyelid). Patient B was scored as a L 2E/1E and a R 2E/1. Patient C was scored as a L 1E/1E and a R 0/1 and Patient D was scored as a L 2E/0E and a R 2E/0.
Each patient was given an initial Subjective Patient Score of 10. The Subjective Patient Score is based on a scale of 1 to 10 with 10 being the subject's observed starting amount of peri-orbital puffiness and 0 being no puffiness. Each of the patients scored their puffiness between as a 3 or 4 at 2 weeks, 3 months, and 6 months after their initial treatment.

Compound	adverse effects ([1]; one patient followed for 6 months, 25 mg/mL, four injections)	duration of overall reduction in peri-orbital puffiness due to peri-orbital edema compared to pre-treatment ([1]; one patient followed for 6 months, 25 mg/mL, four injections, recurrence of some of the edema)	time after the injections within which an improvement in the extent of peri-orbital puffiness due to peri-orbital edema was observed ([1]; one patient, four injections of a composition comprising 25 mg/mL)	adverse effects ([2]; one patient followed for 6 months)	duration of overall reduction in peri-orbital puffiness due to peri-orbital edema compared to pre-treatment ([2]; one patient followed for 6 months, recurrence of some of the edema)	time after the injections within which an improvement in the extent of peri-orbital puffiness due to peri-orbital edema was observed ([2]; one patient)	severity of inflammation (scale 0-4) after treatment ([3]; Patient A, 4 prior to treatment)	severity of inflammation (scale 0-4) after treatment ([3]; Patient B, 3 prior to treatment)	severity of inflammation (scale 0-4) after treatment ([3]; Patient C, 3 prior to treatment)	lower eyelid puffiness, visual assessment [4]	overall severity score of scleroderma post-treatment (severe, moderate, mild, none) [5]	myelination of neurons by microscopy (Demyelinated neurons)	duration of effect on jowls (patients with jowls)	severity of jowls (severe, moderate or mild) after treatment (patients with jowls; one day after treatment, A and B severe, C mild before)	PEFAS score after treatment (upper eyelid over lower eyelid) ([6]; Patient A, left eye, L 0/3E before treatment)	PEFAS score after treatment (upper eyelid over lower eyelid) ([6]; Patient C, right eye, R 0/3E before treatment)	adverse effects ([6]; Patients A-D followed for up to 6 months, 30U per fat pad)	time over which a reduction in peri-orbital puffiness is still exhibited ([6]; Patients A-D, 30U per fat pad)	time after the injections within which an improvement in the extent of peri-orbital puffiness was exhibited ([6]; each of Patients A-D, 30U per peri-orbital fat pad exhibiting edema)	peri-orbital (eye) puffiness compared to pre-treatment ([6]; each of Patients A-D, followed 1 month (C), 2 months (D), 3 months (A and B), 30U per fat pad)
Cc1cc(=O)oc2cc(O)ccc12 [4-methylumbelliferone]	without any adverse effects	up to 3 months	15 to 60 min																	
Hylenex: recombinant preparation of human hyaluronidase; soluble fragment of human hyaluronidase (PH20), 447 amino acids, SEQ ID NO: 1				without any adverse effects	up to 3 months	15 to 60 min	2	2	2	reduction in lower eyelid puffiness	mild	remyelinated neurons	more than six months	mild jowls	0/0	0/1	without any adverse effects	up to 6 months	15 to 60 min	marked reduction
collagenase										did not exhibit any reduction in lower eyelid puffiness										
